Columns and labels:
[1] = biological target: NT-3 growth factor receptor (Homo sapiens) (UniProt Q16288); assay: Inhibition of human TRKC at 100 nM using poly[Glu:Tyr] (4:1) as substrate by [gamma-33P]-ATP assay
[2] = Inhibition of PI3K/Akt/mTOR signaling in human HeLa cells assessed as reduction in AKT 308 phosphorylation incubated for 24 hrs by Western blot analysis; format: cell-based
[3] = biological target: Maternal embryonic leucine zipper kinase (Homo sapiens) (UniProt Q14680); assay: Inhibition of human MELK at 100 nM using KKLNRTLSFAEPG as substrate by [gamma-33P]-ATP assay
[4] = biological target: Tyrosine-protein kinase JAK1 (Homo sapiens) (UniProt P23458); assay: Inhibition of human JAK1 at 100 nM using poly[Glu:Tyr] (4:1) as substrate by [gamma-33P]-ATP assay
[5] = biological target: Transient receptor potential cation channel subfamily M member 7 (Homo sapiens) (UniProt Q96QT4); assay: Inhibition of human TRPM7 at 100 nM using MBP as substrate by [gamma-33P]-ATP assay
MCF7 = assay: cells; details: Homo sapiens, MCF7, 72 h
[6] = biological target: Dual specificity protein kinase CLK2 (Homo sapiens) (UniProt P49760); assay: Inhibition of human CLK2 at 100 nM using MBP as substrate by [gamma-33P]-ATP assay
[7] = biological target: Serine/threonine-protein kinase OSR1 (Homo sapiens) (UniProt O95747); assay: Inhibition of human OSR1 at 100 nM using RRHYYYDTHTNTYYLRTFGHNTRR as substrate by [gamma-33P]-ATP assay
[8] = biological target: Dual specificity tyrosine-phosphorylation-regulated kinase 1B (Homo sapiens) (UniProt Q9Y463); assay: Inhibition of human DYRK1B at 100 nM using RRRFRPASPLRGPPK as substrate by [gamma-33P]-ATP assay
[9] = biological target: Fibroblast growth factor receptor 4 (Homo sapiens) (UniProt P22455); assay: Inhibition of human FGFR4 at 100 nM using poly[Glu:Tyr] (4:1) as substrate by [gamma-33P]-ATP assay
[10] = biological target: Megakaryocyte-associated tyrosine-protein kinase (Homo sapiens) (UniProt P42679); assay: Inhibition of human CTK at 100 nM using poly[Glu:Tyr] (4:1) as substrate by [gamma-33P]-ATP assay
[11] = biological target: Protein kinase C beta type (Homo sapiens) (UniProt P05771); assay: Inhibition of human PKCb1 at 100 nM using Histone H1 as substrate by [gamma-33P]-ATP assay
Protein kinase C beta type (Homo sapiens), sequence (P05771 2-671 limits assumed): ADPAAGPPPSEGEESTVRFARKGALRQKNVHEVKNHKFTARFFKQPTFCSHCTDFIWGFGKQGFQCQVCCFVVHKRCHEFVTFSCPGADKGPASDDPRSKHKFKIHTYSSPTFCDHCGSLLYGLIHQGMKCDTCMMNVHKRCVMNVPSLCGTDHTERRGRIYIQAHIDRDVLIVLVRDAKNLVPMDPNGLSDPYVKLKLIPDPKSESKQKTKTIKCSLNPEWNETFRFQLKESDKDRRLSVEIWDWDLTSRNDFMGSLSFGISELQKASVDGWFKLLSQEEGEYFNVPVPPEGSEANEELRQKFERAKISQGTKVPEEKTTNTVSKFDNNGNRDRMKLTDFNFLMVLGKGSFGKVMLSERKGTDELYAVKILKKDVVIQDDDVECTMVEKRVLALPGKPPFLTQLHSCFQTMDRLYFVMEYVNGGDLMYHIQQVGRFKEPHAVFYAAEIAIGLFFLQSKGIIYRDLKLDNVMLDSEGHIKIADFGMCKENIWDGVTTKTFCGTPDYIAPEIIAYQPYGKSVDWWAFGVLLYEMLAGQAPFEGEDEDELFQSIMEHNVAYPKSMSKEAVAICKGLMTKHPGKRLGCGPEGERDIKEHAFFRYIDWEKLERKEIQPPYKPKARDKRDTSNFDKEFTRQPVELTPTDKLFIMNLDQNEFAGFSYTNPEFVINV

[12] = biological target: cGMP-dependent protein kinase 2 (Homo sapiens) (UniProt Q13237); assay: Inhibition of human PKG2 at 100 nM using LRRASLG as substrate by [gamma-33P]-ATP assay
[13] = biological target: Calcium/calmodulin-dependent protein kinase type 1G (Homo sapiens) (UniProt Q96NX5); assay: Inhibition of human CAMK1G at 100 nM using KKALRRQETVDAL as substrate by [gamma-33P]-ATP assay
Calcium/calmodulin-dependent protein kinase type 1G (Homo sapiens), sequence (Q96NX5 whole entry): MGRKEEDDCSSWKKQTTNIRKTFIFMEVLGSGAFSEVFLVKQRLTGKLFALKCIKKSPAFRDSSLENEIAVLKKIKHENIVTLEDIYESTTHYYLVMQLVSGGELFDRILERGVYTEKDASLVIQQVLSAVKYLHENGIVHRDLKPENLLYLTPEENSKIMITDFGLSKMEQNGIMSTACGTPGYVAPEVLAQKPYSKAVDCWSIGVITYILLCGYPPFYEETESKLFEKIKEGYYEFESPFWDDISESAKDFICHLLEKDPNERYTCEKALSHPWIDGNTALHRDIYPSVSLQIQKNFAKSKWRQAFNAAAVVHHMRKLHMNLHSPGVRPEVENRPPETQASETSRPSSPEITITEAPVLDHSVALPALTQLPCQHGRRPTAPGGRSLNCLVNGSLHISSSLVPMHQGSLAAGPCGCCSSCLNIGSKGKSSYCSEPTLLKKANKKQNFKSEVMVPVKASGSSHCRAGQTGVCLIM

[14] = biological target: Protein kinase C epsilon type (Homo sapiens) (UniProt Q02156); assay: Inhibition of human PKCepsilon at 100 nM using ERMRPRKRQGSVRRRV as substrate by [gamma-33P]-ATP assay
Protein kinase C epsilon type (Homo sapiens), sequence (Q02156 whole entry): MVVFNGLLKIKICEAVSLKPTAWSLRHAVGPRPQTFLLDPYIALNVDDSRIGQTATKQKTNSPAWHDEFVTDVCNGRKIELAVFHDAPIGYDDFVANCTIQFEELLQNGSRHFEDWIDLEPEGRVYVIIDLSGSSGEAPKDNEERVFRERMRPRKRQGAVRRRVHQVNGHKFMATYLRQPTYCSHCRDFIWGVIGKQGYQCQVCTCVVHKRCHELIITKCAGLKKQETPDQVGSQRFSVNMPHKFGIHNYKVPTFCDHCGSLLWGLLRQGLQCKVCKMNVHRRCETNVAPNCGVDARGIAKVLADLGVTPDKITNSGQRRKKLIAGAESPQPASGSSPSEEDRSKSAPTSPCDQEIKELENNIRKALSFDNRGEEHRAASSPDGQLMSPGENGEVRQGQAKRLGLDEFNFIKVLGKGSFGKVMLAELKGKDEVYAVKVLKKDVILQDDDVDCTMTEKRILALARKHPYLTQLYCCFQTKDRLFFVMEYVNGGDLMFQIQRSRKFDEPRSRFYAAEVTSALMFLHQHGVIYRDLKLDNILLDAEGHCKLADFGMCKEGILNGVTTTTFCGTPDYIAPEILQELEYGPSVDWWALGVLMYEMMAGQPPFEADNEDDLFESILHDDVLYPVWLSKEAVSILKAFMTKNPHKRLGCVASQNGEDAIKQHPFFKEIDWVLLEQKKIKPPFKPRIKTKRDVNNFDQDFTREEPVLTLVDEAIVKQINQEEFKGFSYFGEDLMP

[15] = biological target: MAP/microtubule affinity-regulating kinase 3 (Homo sapiens) (UniProt P27448); assay: Inhibition of human MARK3 at 100 nM using KKKVSRSGLYRSPSMPENLNRPR as substrate by [gamma-33P]-ATP assay
[16] = biological target: eIF-2-alpha kinase GCN2 (Homo sapiens) (UniProt Q9P2K8); assay: Inhibition of human EIF2AK4 at 100 nM using MBP as substrate by [gamma-33P]-ATP assay
Homo sapiens = species: Homo sapiens; assay: Inhibition of human AMPK (A1/B2/G1) at 100 nM using HMRSAMSGLHLVKRR as substrate by [gamma-33P]-ATP assay
[17] = Toxicity in BALB/c mouse xenografted with human A549 cells assessed as reduction in body weight at 20 to 40 mg/kg, ig administered for 30 days; format: organism-based; details: in vivo, po, 720 h
HeLa = assay: Antitumor activity against human HeLa cells xenografted in BALB/c nude mouse assessed as tumor growth inhibition at 50 mg/kg, ig administered for 30 days measured every 3 days during compound dosing relative to control; format: functional; details: po, read-out: TGI
[18] = biological target: Angiopoietin-1 receptor (Homo sapiens) (UniProt Q02763); assay: Inhibition of human TIE2 at 100 nM using poly[Glu:Tyr] (4:1) as substrate by [gamma-33P]-ATP assay
[19] = biological target: Macrophage-stimulating protein receptor (Homo sapiens) (UniProt Q04912); assay: Inhibition of human RON at 100 nM using KKSRGDYMTMQIG as substrate by [gamma-33P]-ATP assay
Macrophage-stimulating protein receptor (Homo sapiens), sequence (Q04912 25-304 limits assumed): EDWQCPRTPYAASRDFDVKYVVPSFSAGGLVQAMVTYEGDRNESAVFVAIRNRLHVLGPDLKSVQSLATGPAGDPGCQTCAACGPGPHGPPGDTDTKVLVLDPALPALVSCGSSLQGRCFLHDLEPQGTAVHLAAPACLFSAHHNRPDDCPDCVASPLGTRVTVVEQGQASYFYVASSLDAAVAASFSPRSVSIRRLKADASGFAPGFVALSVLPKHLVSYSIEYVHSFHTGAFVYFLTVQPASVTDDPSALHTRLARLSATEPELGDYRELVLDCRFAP
Macrophage-stimulating protein receptor (Homo sapiens), sequence (Q04912 310-1400 limits assumed): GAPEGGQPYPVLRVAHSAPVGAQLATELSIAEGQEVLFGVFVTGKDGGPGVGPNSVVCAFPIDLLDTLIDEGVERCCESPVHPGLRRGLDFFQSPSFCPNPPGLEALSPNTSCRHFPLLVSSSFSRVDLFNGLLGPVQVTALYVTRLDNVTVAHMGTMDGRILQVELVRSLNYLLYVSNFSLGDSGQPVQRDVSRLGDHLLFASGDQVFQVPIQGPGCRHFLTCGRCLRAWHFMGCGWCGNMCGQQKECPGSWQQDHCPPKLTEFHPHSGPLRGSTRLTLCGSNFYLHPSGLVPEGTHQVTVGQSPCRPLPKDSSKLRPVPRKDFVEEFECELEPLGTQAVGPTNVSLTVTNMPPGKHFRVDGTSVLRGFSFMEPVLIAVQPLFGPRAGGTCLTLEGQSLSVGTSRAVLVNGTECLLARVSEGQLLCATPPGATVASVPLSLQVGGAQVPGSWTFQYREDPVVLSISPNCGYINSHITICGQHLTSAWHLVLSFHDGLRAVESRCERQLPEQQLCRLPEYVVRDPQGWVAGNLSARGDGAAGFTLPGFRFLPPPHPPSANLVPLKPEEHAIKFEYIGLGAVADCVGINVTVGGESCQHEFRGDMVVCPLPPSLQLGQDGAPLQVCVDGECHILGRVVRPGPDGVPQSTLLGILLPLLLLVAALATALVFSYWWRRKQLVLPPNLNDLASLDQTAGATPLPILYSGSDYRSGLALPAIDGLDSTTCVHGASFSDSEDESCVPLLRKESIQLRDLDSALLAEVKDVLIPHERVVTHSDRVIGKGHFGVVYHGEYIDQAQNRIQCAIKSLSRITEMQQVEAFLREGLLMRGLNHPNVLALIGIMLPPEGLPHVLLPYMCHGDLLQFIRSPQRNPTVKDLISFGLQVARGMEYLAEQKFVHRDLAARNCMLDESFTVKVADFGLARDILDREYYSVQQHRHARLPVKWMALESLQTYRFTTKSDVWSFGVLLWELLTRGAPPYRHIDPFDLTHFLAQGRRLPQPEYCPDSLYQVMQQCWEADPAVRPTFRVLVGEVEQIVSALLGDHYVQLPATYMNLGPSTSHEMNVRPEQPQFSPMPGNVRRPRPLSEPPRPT

[20] = biological target: Serine/threonine-protein kinase PLK1 (Homo sapiens) (UniProt P53350); assay: Inhibition of human PLK1 at 100 nM using casein as substrate by [gamma-33P]-ATP assay
Serine/threonine-protein kinase PLK1 (Homo sapiens), sequence (P53350 whole entry): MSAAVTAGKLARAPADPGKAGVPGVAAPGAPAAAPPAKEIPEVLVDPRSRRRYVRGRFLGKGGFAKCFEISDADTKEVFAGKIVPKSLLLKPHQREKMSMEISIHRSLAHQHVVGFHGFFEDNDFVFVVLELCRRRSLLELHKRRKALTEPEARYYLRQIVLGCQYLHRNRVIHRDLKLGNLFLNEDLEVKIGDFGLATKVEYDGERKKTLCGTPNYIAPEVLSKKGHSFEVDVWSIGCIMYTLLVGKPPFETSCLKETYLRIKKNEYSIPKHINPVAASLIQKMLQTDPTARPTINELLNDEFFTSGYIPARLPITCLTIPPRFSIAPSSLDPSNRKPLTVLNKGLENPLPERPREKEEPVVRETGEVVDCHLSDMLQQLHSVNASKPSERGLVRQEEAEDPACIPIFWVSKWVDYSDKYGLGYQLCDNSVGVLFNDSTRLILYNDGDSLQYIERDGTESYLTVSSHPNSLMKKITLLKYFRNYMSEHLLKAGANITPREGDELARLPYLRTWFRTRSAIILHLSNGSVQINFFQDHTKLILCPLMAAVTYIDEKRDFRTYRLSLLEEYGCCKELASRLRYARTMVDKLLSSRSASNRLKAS

[21] = biological target: Calcium/calmodulin-dependent protein kinase type 1B (Homo sapiens) (UniProt Q6P2M8); assay: Inhibition of human CAMK1B at 100 nM using KKALRRQETVDAL as substrate by [gamma-33P]-ATP assay
[22] = biological target: Serine/threonine-protein kinase PLK3 (Homo sapiens) (UniProt Q9H4B4); assay: Inhibition of human PLK3 at 100 nM using casein as substrate by [gamma-33P]-ATP assay
[23] = biological target: Serine/threonine-protein kinase 38 (Homo sapiens) (UniProt Q15208); assay: Inhibition of human STK38 at 100 nM using KKRNRRLSVA as substrate by [gamma-33P]-ATP assay
[24] = biological target: Serine/threonine-protein kinase 38-like (Homo sapiens) (UniProt Q9Y2H1); assay: Inhibition of human STK38L at 100 nM using KKRNRRLSVA as substrate by [gamma-33P]-ATP assay
Serine/threonine-protein kinase 38-like (Homo sapiens), sequence (Q9Y2H1 2-464 limits assumed): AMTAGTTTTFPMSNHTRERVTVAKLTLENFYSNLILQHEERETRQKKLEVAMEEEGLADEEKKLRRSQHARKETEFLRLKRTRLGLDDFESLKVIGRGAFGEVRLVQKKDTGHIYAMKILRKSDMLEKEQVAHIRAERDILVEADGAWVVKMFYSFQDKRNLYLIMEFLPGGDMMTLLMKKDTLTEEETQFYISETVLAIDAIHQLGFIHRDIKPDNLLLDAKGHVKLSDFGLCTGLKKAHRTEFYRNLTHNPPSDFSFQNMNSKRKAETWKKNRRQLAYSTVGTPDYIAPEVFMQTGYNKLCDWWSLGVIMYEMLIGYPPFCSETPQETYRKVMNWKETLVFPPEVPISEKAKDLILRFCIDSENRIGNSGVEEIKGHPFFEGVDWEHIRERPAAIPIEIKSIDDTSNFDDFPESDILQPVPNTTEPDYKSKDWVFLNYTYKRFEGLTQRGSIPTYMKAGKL

[25] = biological target: Myosin light chain kinase family member 4 (Homo sapiens) (UniProt Q86YV6); assay: Inhibition of human MYLK4 at 100 nM using KKRPQRRYSNVF as substrate by [gamma-33P]-ATP assay
[26] = biological target: Calcium/calmodulin-dependent protein kinase type II subunit alpha (Homo sapiens) (UniProt Q9UQM7); assay: Inhibition of human CAMK2A at 100 nM using KKALRRQETVDAL as substrate by [gamma-33P]-ATP assay
[27] = biological target: Calcium/calmodulin-dependent protein kinase kinase 1 (Homo sapiens) (UniProt Q8N5S9); assay: Inhibition of human CAMKK1 at 100 nM using MBP as substrate by [gamma-33P]-ATP assay
Calcium/calmodulin-dependent protein kinase kinase 1 (Homo sapiens), sequence (Q8N5S9 whole entry, looked up): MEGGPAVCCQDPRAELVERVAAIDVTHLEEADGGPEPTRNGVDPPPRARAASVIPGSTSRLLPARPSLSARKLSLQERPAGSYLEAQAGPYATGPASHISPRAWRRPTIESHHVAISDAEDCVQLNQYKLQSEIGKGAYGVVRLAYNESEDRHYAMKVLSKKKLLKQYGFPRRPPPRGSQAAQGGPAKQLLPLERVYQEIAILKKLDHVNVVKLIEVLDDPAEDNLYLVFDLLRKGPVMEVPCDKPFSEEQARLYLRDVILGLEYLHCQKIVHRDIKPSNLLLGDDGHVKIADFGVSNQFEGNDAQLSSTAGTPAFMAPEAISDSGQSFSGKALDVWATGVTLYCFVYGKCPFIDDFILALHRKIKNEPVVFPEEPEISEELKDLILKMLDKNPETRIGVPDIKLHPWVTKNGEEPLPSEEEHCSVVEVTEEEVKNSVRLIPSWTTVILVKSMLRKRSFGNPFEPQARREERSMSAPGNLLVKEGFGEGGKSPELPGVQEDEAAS

[28] = biological target: Serine/threonine-protein kinase ULK3 (Homo sapiens) (UniProt Q6PHR2); assay: Inhibition of human ULK3 at 100 nM using MBP as substrate by [gamma-33P]-ATP assay

COc1ccc(N2C(=O)COc3ccc(-c4cnc(OC)c(NS(=O)(=O)c5ccc(F)cc5)c4)cc32)cc1
inhibition [1]: 2.63%
inhibition [2]: Dose-dependent effect
inhibition [3]: 9.78%
inhibition [4]: 26.8%
inhibition [5]: 1.61%
IC50 (MCF7): 8.26 µM
inhibition [6]: 10.2%
inhibition [7]: 4.85%
inhibition [8]: 18.8%
inhibition [9]: 6.2%
inhibition [10]: -7.54%
inhibition [11]: 7.83%
inhibition [12]: 1.95%
inhibition [13]: 14.6%
inhibition [14]: 3.65%
inhibition [15]: -2.27%
inhibition [16]: 8.65%
inhibition (Homo sapiens): -4.96%
Activity [17]: Non-Toxic
inhibition in vivo at 50 mg/kg (HeLa): 87.7%
inhibition [18]: 8.06%
inhibition [19]: -0.5%
inhibition [20]: 8.68%
inhibition [21]: 7.52%
inhibition [22]: -5.25%
inhibition [23]: 4.17%
inhibition [24]: -2.59%
inhibition [25]: 7.06%
inhibition [26]: 0.08%
inhibition [27]: 14.3%
inhibition [28]: 5.64%

— ChEMBL document CHEMBL4364276, “Discovery of 4-phenyl-2H-benzo[b][1,4]oxazin-3(4H)-one derivatives as potent and orally active PI3K/mTOR dual inhibitors” (Eur J Med Chem, 2019)
